Assay results from publication PMC6979384, “Characterization of the plant homeodomain (PHD) reader family for their histone tail interactions” (Epigenetics & Chromatin, 2020).
Entries after “also recorded” stand apart in the source; their conditions may differ. Read-outs that look alike come from different tables or passages of the source.

Legend:
TRIM66 (PB) [1] = assay: dCypher AlphaScreen Phase B (full peptide screen); assay type: binding, human; settings: reader 7 nM, 100 nM peptide, 23 °C
Protocol: (§1) X-axes are log(protein concentration (M)) at constant peptide concentration (100 nM); Y-axes are AlphaScreen counts, representing relative strength of binding (n = 2; error bars are S.D.). i Heat map represents relative binding to H3 N-terminal peptides (left) by PHD-containing GST-tagged proteins (top) using the dCypher AlphaScreen platform. Protein concentrations can be found in Additional file 5: Table S4. Binding strength is indicated by color gradient from green to yellow (stronger to weaker). […] Alpha counts (n = 2) were normalized individually for each protein to the highest signal for each respective assay. For full dCypher peptide screen data, see Additional file 4: Table S3
(§2) Once the optimal protein concentration ranges for each of the eight readers were determined, we conducted the full dCypher peptide screen (293 histone peptides) (Fig. 3i; Additional file 4: Table S3).
(§3) The dCypher peptide screen assay was performed as previously described. Briefly, 5 μL of GST-tagged reader domains (optimal protein concentration for library screening determined by initial binding curves to candidate peptides) were incubated with 5 μL of 400 nM (100 nM Final) biotinylated histone peptides (EpiCypher) for 30 min at 23 °C in 1× AlphaLISA Epigenetics buffer + epigenetics buffer supplement (PerkinElmer, AL1008) in a 384-well plate. A 10 μL mix of 5 µg/mL (2.5 μg/mL final) glutathione Acceptor beads (PerkinElmer, AL109M) and 10 μg/mL (5 μg/mL final) streptavidin Donor beads (PerkinElmer, 6760002) was prepared in 1× [Epigenetics buffer + supplement] and added to each well. Plates were incubated at 23 °C in subdued lighting for 60 min and AlphaLISA signal measured on a PerkinElmer 2104 EnVision (680 nm laser excitation, 570 nm emission filter ± 50 nm bandwidth).
(§4) Supplementary file 13072_2020_328_MOESM4_ESM.xlsx: Additional file 4: Table S3. dCypher Results. Excel Tab Peptide Phase A is a compiled set of binding data: chromatin reader titration vs. several peptide targets. Data is presented as raw Alpha counts in duplicates at each concentration tested. Excel Tab Peptide Phase B is a compiled set of binding data: chromatin reader at optimized concentrations vs. entire 293 peptide library. Data is presented as the average and standard deviation of duplicates. […] Key: red = strong binding; blue = weak/no binding.

CHD5 (PPCC) [2] = assay: dCypher AlphaScreen Phase B (full peptide screen); assay type: binding, human; settings: reader 5.2 nM, 100 nM peptide, 23 °C, n = 2
Protocol: as §1, §2, §3, §4

PHRF1 (RP) = assay: PHD finger domain microarray; assay type: binding, human
Text: (§5) To define the histone binding preferences of the PHD finger proteome, we expressed and purified 123 annotated human PHD-containing domains as GST-tagged recombinant fusions from E. coli. The recombinant proteins consisted of either PHD fingers in isolation, or as tandem domains if a given PHD finger was located adjacent to another reader domain (e.g., one or more PHD fingers, Tudor, chromo and/or bromodomains) (Additional file 1: Table S1). These GST fusions were printed in duplicate on nitrocellulose-coated microarray slides and probed with biotinylated peptides that represented the N-termini of H3, H4, H2A or H2B (Fig. 1a and Additional file 2: Figure S1). As the majority of PHD readers thus far characterized are H3K4me0/3 readers, we included additional peptides (H3K4 as either mono-, di-, or trimethylated) to further determine any H3K4 methyl preference (Additional file 2: Figure S2 and Fig. 1b). As a control, we also probed these microarrays with an α-Tubulin peptide (a.a. 30–50) that would not be predicted to interact with PHD fingers (Additional file 2: Figure S1). […] We also cannot exclude the possibility that some PHD fingers might not be functionally active on the microarrays (perhaps due to misfolding or the lack of an important adjacent region).
(§6) The protein domain microarray was designed to include 123 GST-tagged PHD-domain containing recombinant proteins. Protein domain microarray development and probing was as previously. Briefly, recombinant proteins were synthesized and cloned into pGEX-4T-1 vector by Biomatik Corporation. These GST-PHD readers were subsequently expressed, purified, and spotted in duplicate onto nitrocellulose-coated glass slides (Oncyte Avid slides, Grace Bio-Labs) using a pin arrayer (Aushon 2470, Aushon). For probing, microarray slides were blocked with 3% milk, 3% bovine serum albumin, 0.1% Tween 20 in PBS. Biotinylated peptides were pre-labeled with streptavidin-Cy3 fluorophore (GE Healthcare) and incubated with the blocked array slides. Slides were then washed with PBST and allowed to air dry. Fluorescent interactions were visualized using a GenePix 4200A Microarray Scanner (Molecular Devices).

[3] = test system: 123 annotated human PHD-containing domains; assay: PHD finger domain microarray probed with biotinylated peptides (all domains); assay type: binding; settings: for number of H3-interacting domains with preference for this state: out of 31 H3-binding domains; for binding on domain microarray: GST-PHD readers in duplicate on nitrocellulose slides, biotinylated peptide pre-labeled with streptavidin-Cy3
Text: as §5, §6

KDM5A (3) = assay: Histone peptide microarray; assay type: binding, human; settings: GST-tagged KDM5A (3), sheet Array Heatmap, each array performed twice, total n = 4
Summary of the method: (§7)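 GST-tagged PHD readers, 0.5 μM, probed on a microarray of 293 synthetic histone peptides carrying single or combinatorial PTMs (optimized Petell protocol). Signals are averaged over 4 replicates and expressed as relative binding.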

TRIM66 (PB) [4] = assay: Histone peptide microarray; assay type: binding, human; settings: GST-tagged TRIM66 (PB = PHD + Bromodomain), sheet Array Heatmap, each array performed twice, total n = 4
Summary of the method: as §7

CHD5 (PPCC) [5] = assay: Histone peptide microarray; assay type: binding, human; settings: GST-tagged CHD5 (PPCC = Dual PHD + Dual Chromodomain), sheet Array Heatmap, each array performed twice, total n = 4
Summary of the method: as §7

CHD4 (PPCC) = assay: Histone peptide microarray; assay type: binding, human; settings: for Array Heatmap signal (histone peptide microarray): GST-tagged CHD4 (PPCC = Dual PHD + Dual Chromodomain), sheet Array Heatmap, each array performed twice, total n = 4; for relative binding: peptide microarray, reader 0.5 μM, n = 4
Summary of the method: as §7

Substance	binding (CHD5 (PPCC) [2])	Array Heatmap signal (histone peptide microarray) (KDM5A (3))	Array Heatmap signal (histone peptide microarray) (TRIM66 (PB) [4])	Array Heatmap signal (histone peptide microarray) (CHD5 (PPCC) [5])	Array Heatmap signal (histone peptide microarray) (CHD4 (PPCC))	relative binding (CHD4 (PPCC))	binding on domain microarray [3]	further results
H3 (1-20): unmodified H3 N-terminal peptide (1–20)	preference for H3K4me0/1	0.4935	0.7114	0.5462	0.5925	no difference in binding		binding (TRIM66 (PB) [1]; n = 2, listed as H3K4me0): preference for H3K4me0 and me1; also recorded: robust readers of H3K4me0 peptides; binding preference (PHRF1 (RP); listed as H3K4me0): no preference on the domain array; binding preference (PHRF1 (RP); listed as unmodified H3 tail): readers of the unmodified H3 tail; number of PHD-containing fusions with positive binding ([3]; of 123 PHD-containing fusions): 31; number of H3-interacting domains with preference for this state [3]: 10
H3K4me1: H3 1-20 [Peptide H3K4me1]	preference for H3K4me0/1	0.6222	0.6245	0.5953	0.5818		did not detect H3K4me1 to the same degree	binding (TRIM66 (PB) [1]; n = 2): preference for H3K4me0 and me1
H3K4me2: H3 1-20 [Peptide H3K4me2]		0.6851	0.6781	0.6021	0.5852		largely recognized equivalently	
H3K4me3: H3 1-20 [Peptide H3K4me3]		0.6781	0.622	0.5167	0.5281		largely recognized equivalently	binding preference (PHRF1 (RP)): no preference; number of H3-interacting domains with preference for this state [3]: 18
H3K9ac: H3 1-20 [Peptide H3K9ac]						increased binding		Array Heatmap signal (histone peptide microarray) (KDM5A (3); listed as 2): 0.6003; Array Heatmap signal (histone peptide microarray) (KDM5A (3); listed as 3): 0.6283; Array Heatmap signal (histone peptide microarray) (TRIM66 (PB) [4]; listed as 2): 0.8314; Array Heatmap signal (histone peptide microarray) (TRIM66 (PB) [4]; listed as 3): 0.731; Array Heatmap signal (histone peptide microarray) (CHD5 (PPCC) [5]; listed as 2): 0.5875; Array Heatmap signal (histone peptide microarray) (CHD5 (PPCC) [5]; listed as 3): 0.5535; Array Heatmap signal (histone peptide microarray) (CHD4 (PPCC); listed as 2): 0.6247; Array Heatmap signal (histone peptide microarray) (CHD4 (PPCC); listed as 3): 0.6748
H3K9me3: H3 1-20 [Peptide H3K9me3]	ability to bind to the peptides containing H3K9me3	0.563	0.7052	0.5526	0.5917	no difference in binding		binding (TRIM66 (PB) [1]; n = 2): ability to bind to the peptides containing H3K9me3
H3S10p: H3 1-20 [Peptide H3S10p]		0.4717	0.7641	0.5995	0.6003			
